Source: patent US7745424B2, “Alkane diol derivatives as therapeutic agents for the treatment of bone conditions” (The Univeristy Court of the University of Aberdeen, priority 2001, dated 2010)
“Also recorded” adds a separate entry of the source.

Experiments:
osteoclasts = experiment: Murine co-culture system (osteoblast-bone marrow co-culture on dentine); type: cell-based, mice; settings: for inhibition of osteoclast formation and activity: murine co-culture system
Method: The first model system, the murine co-culture system, studies the formation of osteoclasts_from precursors present in the bone marrow. The number of osteoclasts and the amount of dentine resorption was measured.
Osteoclast formation and activity was studied using an adaptation (see, e.g., van't Hof & Ralston, 1997) of the osteoblast-bone marrow co-culture assay originally described by Takahashi et al., 1988.
Co-Culture Methods. Co-culture (see, e.g., Van't Hof et al., 1997) is a method to study the formation of osteoclasts from their precursors. In this assay, osteoblasts were obtained from the calvaria of 2-3 day old neonatal mice. These were plated on dentine, stimulated with 1,25-dihydroxy vitamin D3 to stimulate RANKL and M-CSF expression. Early osteoclast precursors were present in the bone marrow of adult mice. The bone marrow suspension was purified to remove the red blood cells and the remainder cultured on top of the osteoblast layer. The stimulatory factors then allowed the osteoclast precursors to differentiate into mature osteoclasts. At the end of the culture osteoclasts were identified by TRAcP staining and the resorption activity was measured in the same manner as for rabbit osteoclasts.
Preparation of Dentine. The dentine was elephant ivory, preferred to bone because of its uniform surface, which facilitates easy visualisation of resorption pits. It was cut into slices of approximately 200 μm thickness using a Buehler Isomet low speed saw with a diamond wafering blade (series 15 HC). These slices were polished by hand, to a high degree, until one side was shiny. Out of these slices, discs were punched that fit the wells of a 96 well plate, using a paper puncher. Excess residues from the polish were removed by sonication. The discs were then stored in 70% ethanol until required. These discs were then dried and placed shiny side up in the wells of a 96 well plate. Cells were seeded onto the dentine. Following completion of the culture, these dentine slices were carefully removed from the plate and studied under the microscope.
Osteoblast Isolation. Briefly, osteoblasts were isolated from the calvarial bones of 2-day-old mice by sequential collagenase digestion (type I collagenase, Sigma) and cultured in αMEM supplemented with 10% FCS (foetal calf serum) and penicillin and streptomycin at 37° C. in 5% CO2.
More specifically, osteoblasts were obtained from a collagenase digestion of the calvaria (skull bones) of 2-3 day old neo-natal MF1 mice. At this stage in their development these are soft and easily removed. The calvaria from 5-6 mice were carefully dissected and washed in HBSS (Hank's balanced saline solution). The calvaria were placed in a 15 ml tube and shaken at 37° C. in 4 ml collagenase (10 mg/ml) for 10 minutes. This removes the excess unwanted tissue. The liquid was disposed of and a further 4 ml collagenase (10 mg/ml) added to the tube. The calvaria were then digested for a further 30 minutes. After this the supernatant (F1) was removed and retained. The calvaria were washed with a 2×4 ml PBS and this was added to F1. 4 ml EDTA (ethylene diamine tetraacetic acid) (4 mM in PBS) was then added to complex the calcium and allow further extraction of osteoblasts. This was shaken for 10 minutes at 37° C. The supernatant was removed and retained (F2). The calvaria were again washed with 2×4 ml HBSS and this was added to F2. The final 4 ml of collagenase (10 mg/ml) was added to the tube and this was again shaken at 37° C. for 30 minutes. […]

[1] = system: macrophage cell line J774; experiment: MTT macrophage J774 viability assay; type: cell-based; settings: MTT assay; for IC50: Mus musculus, macrophage J774 viability
Method: MTT (3-(4,5-dimethylthiazol-2-yl)-2,5-diphenyl tetrazolium bromide) has an […] colour and is soluble in the medium used for cell culture. The mitochondrial enzyme succinate dehydrogenase acts upon MTT in living cells to produce the insoluble purple coloured formazan. The amount of formazan produced, as measured by UV/visible spectroscopy, is proportional to the number of viable cells.
The medium was carefully removed using a needle without dislodging the crystal layer. 100 μL acidified isopropanol (4 M HCl 1:100 v/v in isopropanol) was added to each well and the purple crystals allowed to dissolve. The absorbance was measured in a plate reader at 540 nm, with 690 nm as reference. The controls were a deep purple colour, indicating a high number of live cells.
Addition of Compounds. […] These stock solutions were then diluted 100× in culture medium.

rabbit osteoclasts = experiment: Rabbit osteoclast culture system; type: cell-based; settings: for rabbit osteoclast numbers / resorption activity: rabbit osteoclast culture on dentine
Text: The second model system was the rabbit osteoclast system, where mature, functional osteoclasts were isolated from the long bones of rabbits and cultured on dentine slices.
Osteoclast Isolation. Osteoclasts were isolated from the long bones of 2-10 day-old rabbits, as described previously (see, e.g., reference Coxon et al., 2000). All 4 limbs were removed from the rabbits and placed in ice-cold PBS. Soft tissue and cartilage were removed and the bones transferred into fresh PBS. The bones were minced in aMEM (without FCS), using a scalpel. All the medium and fragments were transferred to a 50 ml tube, vortexed for 3×10 seconds and left to stand for 1 minute. The supernatant was removed and made up to 50 ml/rabbit with medium and FCS so as to give a final concentration of 10% FCS.
Osteoclast Plating. The cells were plated onto dentine slices in a 96 well plate, at 100 μL/well (medium: αMEM supplemented with 10% FCS and penicillin and streptomycin) and left for 4 hours to allow adherence to the dentine. After this period the medium was removed, and with it the non-adherent cells. Fresh medium was then added. The remaining population was highly enriched in osteoclasts.
Culturing. At this point, test compounds to be studied were added and the cells cultured at 37° C. in 5% CO2 for 48 hours. At the end of the culture, the osteoclasts were identified by staining for tartrate-resistant acid phosphatase (TRAcP) staining. A good number of osteoclasts in the controls was 100-200.
The resorption pit area was quantified by reflected light microscopy as described previously (see, e.g., van't Hof & Ralston, 1997) and again the results expressed as a % of the control values.

[2] = system: macrophage cell line J774; experiment: Alamar Blue macrophage J774 viability assay; settings: Mus musculus, J774, 72 h, read-out: IC50 (μM) Alamar Blue

OCCCCO [1,4-butanediol, reference compound]
inhibition of osteoclast formation and activity (osteoclasts): no detected effect

O=C(OCCCCCCO)c1ccc(-c2ccccc2)cc1 [ABD-0054, 1,6-Hexanediol mono(biphenyl-4-carboxylic acid)Ester]
macrophage J774 viability, activity in words ([1]; range of concentrations (FIGS. 4-7)): next most active
IC50 [1]: 35 µM
inhibition of osteoclast formation and activity (osteoclasts): significantly inhibited
rabbit osteoclast numbers (rabbit osteoclasts): significantly reduced
resorption activity (rabbit osteoclasts): significantly reduced

O=C(OCCCCO)c1ccc(-c2ccccc2)cc1 [ABD-0056, 1,4-Butanediol mono(biphenyl-4-carboxylic acid)Ester]
IC50 [1]: 3.5 µM
number of murine osteoclasts (osteoclast precursors) (osteoclasts; compound added at Day 2, removed at Day 4, terminated at Day 10 (FIG. 15)): even more effective against osteoclast precursor formation than against mature osteoclasts
resorption pit area (osteoclast precursors) (osteoclasts; compound added at Day 2, removed at Day 4, terminated at Day 10, all concentrations tested (FIG. 16)): virtually no resorption
inhibition of osteoclast formation and activity (osteoclasts): significantly inhibited; also recorded: potent inhibitor
concentrations showing a significant effect (rabbit osteoclasts; osteoclast numbers and resorption activity): ≥ 10 µM
rabbit osteoclast numbers (rabbit osteoclasts): significantly reduced
resorption activity (rabbit osteoclasts): significantly reduced
IC50 [2]: 18 µM
